Source: patent US20120183579A1, “COMPOUNDS FOR INFLAMMATION AND IMMUNE-RELATED USES” (Synta Pharmaceuticals Corp., priority 2008, published 2012)

Tests used:
IL-2 = test: Inhibition of IL-2 production (Jurkat cells activated with PHA, ELISA); type: cell-based; settings: Homo sapiens, Jurkat, Jurkat/PHA/1% FBS; activity class
Description: Jurkat cells were placed in a 96 well plate (0.5 million cells per well in 1% FBS medium), and then a test compound of this invention was added at different concentrations. After 10 minutes, the cells were activated with PHA (final concentration 2.5 μg/mL) and incubated for 20 hours at 37° C. under 5% CO2. The final volume was 200 μL. Following incubation, the cells were centrifuged, and the supernatants collected and stored at −70° C. prior to assaying for IL-2 production. A commercial ELISA kit (IL-2 Eli-pair, Diaclone Research, Besancon, France) was used to detect production of IL-2, from which dose response curves were obtained. The IC50 value was calculated as the concentration at which 50% of maximum IL-2 production after stimulation was inhibited versus a non-stimulation control.

CRACM1/STIM1-CHOK1 = biological target: T1, CRACM1/STIM1-CHOK1 (Homo sapiens, UniProt Q96D31); test: Patch clamp inhibition of ICRAC current in CRACM1/STIM1-CHOK1 cells; type: cell-based; settings: at 500 nM, activity class
T1 construct: Full length human Stim1, CracM1, CracM2 and CracM3 cDNA; Stim1 induced with doxycycline
Description: Manual patch clamp experiments are conducted in the tight-seal whole-cell configuration at room temperature (21-25° C.). Patch pipettes are fashioned from borosilicate glass capillary tubes and have resistances between 2-4 MO after filling with standard intracellular solution. High resolution current recordings are acquired with a computer-based patch clamp amplifier system (EPC-10, HEKA, Lambrecht, Germany). All voltages are corrected for a liquid junction potential of 10 mV between external and internal solutions with glutamate as the intracellular anion. Currents are filtered at 2.9 kHz and digitized at 10 μs intervals. Capacitive currents and series resistance are determined and corrected before each voltage ramp using the automatic capacitance compensation of the EPC-10.
In general, a whole cell patch clamp method is used to examine the effects of a compound of the invention on a channel(s) that mediates ICRAC. In such experiments, a baseline ICRAC measurement is established within the first 70 voltage ramps, or 140 seconds, for a patched cell. Then the cells are perfused with the compound to be tested and the effect of the compound on ICRAC is measured for at least an additional 440 to 500 seconds. A compound that modulates ICRAC (e.g., inhibits) is a compound that is useful in the invention for modulating CRAC ion channel activity.
Each compound is diluted from a 10 mM stock in series using DMSO. The final DMSO concentration is always kept at 0.1%.
ICRAC currents are measured using 50 msec voltage ramps between −100 mV to +100 mV. The voltage ramps are stimulated every 2 seconds for the first 70 sweeps, then every 5 seconds for the remainder of the experiment. The membrane potential is held at 0 mV between the test ramps. In a typical experiment, the peak inward currents will develop within 50-100 seconds. Once the ICRAC current is stabilized, the cells are perfused with a test compound in the extracellular solution for at least an additional 500 seconds.
Off-line analysis with the Heka PatchMaster software is used to separate the ICRAC membrane current from the cells basal background currents. In a typical recording, InsP3 stimulated ICRAC currents begin to develop in 6 to 12 seconds after whole cell is established. Therefore, the first 1-4 voltage ramps represent the basal membrane currents in the absence of ICRAC and the average value is subtracted from all subsequent traces. The current value at −80 mV for each ramp trace is then measured and plotted against time. The resulting current versus time data is exported into a Microsoft Excel spreadsheet. The % ICRAC inhibition in each cell is calculated by comparing the amount of current just prior to the compound perfusion to the amount of current after the cells has been perfused with the compound for 440-500 seconds. The IC50 value and Hill coefficient for each compound is estimated by fitting all the individual data points to a single-site Hill equation.
TREx™-CHO cells were transfected with human Stim1 (recombinant DNA in pcDNA4/TO/myc-His™ A with a myc epitope tag in the N-terminal) and either CracM1, CracM2 or CracM3 (recombinant DNA in pcDNA 3.1 with a HA epitope tag in the N-terminal). Stably expressing cells were selected by growing the transfected cells in antibiotics for two to three weeks. Individual cell clones were isolated via serial dilution. […]

T1 sequence (Q96D31 whole entry): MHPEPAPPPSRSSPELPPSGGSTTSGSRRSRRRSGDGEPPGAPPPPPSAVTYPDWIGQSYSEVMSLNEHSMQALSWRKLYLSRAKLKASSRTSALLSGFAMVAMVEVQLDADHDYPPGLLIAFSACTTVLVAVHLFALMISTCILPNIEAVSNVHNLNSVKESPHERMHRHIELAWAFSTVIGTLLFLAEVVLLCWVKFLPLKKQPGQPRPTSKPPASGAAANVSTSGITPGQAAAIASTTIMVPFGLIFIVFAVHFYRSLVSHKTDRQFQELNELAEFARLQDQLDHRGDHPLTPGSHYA

CC1=C(c2ccc(NC(=O)c3ccncc3F)cc2)CN(c2nccnc2Cl)CC1 [Compound 15, N-(4-(1-(3-chloropyrazin-2-yl)-4-methyl-1,2,5,6-tetrahydropyridin-3-yl)phenyl)-3-fluoroisonicotinamide]
IC50 (IL-2): < 50 nM
inhibition at 0.5 µM (CRACM1/STIM1-CHOK1): 50 to 70%

CC1=C(c2ccc(NC(=O)c3cccc(F)c3F)cc2)CN(c2nccs2)CC1 [Compound 11, 2,3-difluoro-N-(4-(4-methyl-1-(thiazol-2-yl)-1,2,5,6-tetrahydropyridin-3-yl)phenyl)benzamide]
IC50 (IL-2): < 50 nM
inhibition at 0.5 µM (CRACM1/STIM1-CHOK1): 70 to 100%
